Patent US6906069B1, “LXR modulators” (Amgen Inc., priority 1999, dated 2005)

target: T1, LXRα (Homo sapiens, UniProt Q13133); assay: cell-based GAL4-LXRα ligand-binding domain luciferase reporter screen for agonists; details: 10 μM compound; transfected 293 cells; relative to control (no additional compound) assigned a value of 1
T1 construct: expressed in transfected cells; host or cells: 293 cells
T1 sequence (Q13133 209-447 limits assumed): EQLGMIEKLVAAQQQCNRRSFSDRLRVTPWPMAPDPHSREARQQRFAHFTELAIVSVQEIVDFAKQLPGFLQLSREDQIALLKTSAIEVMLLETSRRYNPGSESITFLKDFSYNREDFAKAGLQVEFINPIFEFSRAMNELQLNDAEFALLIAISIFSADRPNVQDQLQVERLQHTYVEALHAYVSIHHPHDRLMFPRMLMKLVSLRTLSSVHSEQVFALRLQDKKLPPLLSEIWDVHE
Experimental: In order to identify agonists for LXRα, a cell-based high throughput screen was developed. Briefly, a DNA-binding domain of the nonreceptor transcription factor GAL4 was fused to the putative ligand-binding domain of LXRα. The resulting construct was introduced into 293 cells, together with an UAS-containing luciferase reporter construct. The transfected cells were then treated with the compounds and luciferase activity was measured. Individual compounds were evaluated relative to a control (no additional compound) at a concentration of 10 μM. Relative luciferase activity is provided below for five of the compounds described in the Examples above (luciferase activity of the control was assigned a value of 1).

Relative Activity (relative luciferase activity) | SMILES
4 | CC(c1ccco1)N(C(=O)C12CC3CC(CC(C3)C1)C2)c1ccccn1 (centres unmarked) [Example 1]
3 | CC(c1ccco1)N(C(=O)C12CC3CC(CC(C3)C1)C2)c1ccccc1 (centres unmarked) [Example 4]
≧10 | CC(c1ccccn1)N(C(=O)C1(C)CCCCC1)C(C)c1ccco1 (centres unmarked) [Example 5]

The remaining lines, values behind:

SMILES | Relative Activity (relative luciferase activity)
CC(c1ccco1)N(C(=O)C12CC3CC(CC(C3)C1)C2)c1cccnc1 (centres unmarked) [Example 2] | 5
CC(c1ccco1)N(C(=O)C12CC3CC(CC(C3)C1)C2)c1ccncc1 (centres unmarked) [Example 3] | ≧10
